Test results: patent publication US10845368B2, “Nanoparticles for mitochondrial trafficking of agents” (UNIVERSITY OF GEORGIA RESEARCH FOUNDATION, INC., priority 2012, dated 2020)

Experiments:
[1] = tested on: 3T3-L1 cells; details: 3T3-L1, 100 μM
Description: To examine whether encapsulation of 2,4-DNP in targeted nanoparticles can suppress the induced differentiation of 3T3-L1 preadipocytes at a low dosage that is insufficient to exert cytotoxicity, we continuously exposed 3T3-L1 cells to 1 μM, 4 μM, 25 μM, and 100 μM targeted 2,4-DNP nanoparticles (FIGS. 12A-D and 13) during the differentiation period for 7 d, and evaluated cell viability and intracellular lipid accumulation. Nontargeted 2,4-DNP nanoparticles and free 2,4-DNP were used as controls.

[2] = tested on: HeLa cells; experiment: MTT cytotoxicity assay; type: cell-based, human
Excerpt: FIGS. 11A-C are bar graphs showing cytotoxicity profiles of targeted LND nanoparticles, nontargeted LND nanoparticles, free LND (A); targeted α-TOS nanoparticles, nontargeted α-TOS nanoparticles, free α-TOS in HeLa cells (B); and empty targeted nanoparticles, and empty nontargeted nanoparticles in HeLa cells (C).
The selectivity and efficiency of LND and α-TOS against cancer cells depend on their ability to target the mitochondria of cells. To evaluate the efficacy of our targeted nanoparticles in delivering LND and α-TOS, we performed MTT assays in HeLa cells. […] Preferential localization in the target organelle accounts for the enhanced cytotoxicity of both LND and α-TOS encapsulated in the targeted nanoparticles.

Compound: O=[N+]([O-])c1ccc(O)c([N+](=O)[O-])c1 [Free 2,4-DNP, 2,4-dinitrophenol]
- cellular toxicity [1]: demonstrated cellular toxicity

Compound: Cc1c(C)c2c(c(C)c1OC(=O)CCC(=O)O)CC[C@@](C)(CCC[C@H](C)CCC[C@H](C)CCCC(C)C)O2 [free α-TOS, α-tocopheryl succinate]
- IC50 [2]: 0.381 ± 0.005 µM
